In ChEMBL document CHEMBL5634150, “Design, synthesis and biological evaluation of novel dihydroquinolin-4(1H)-one derivatives as novel tubulin polymerization inhibitors” (Eur J Med Chem, 2023):
The source made the active and inactive calls. The rule behind the calls is not given here.

How the values were obtained:
[1] = tested on: H22; assay: Antitumor activity against mouse H22 cells allografted in mouse model assessed as decrease in Ki67 positive cells at 20 mg/kg by immunohistochemistry analysis; format: functional, organism-based
[2] = tested on: Cell membrane; assay: Induction of mitochondrial membrane depolarization in human K562 cells assessed as increase in green fluorescence intensity at incubated for 48 hrs by JC-1 staining based flow cytometry; format: cell membranes; conditions: dose 1.5-6 nM
[3] = Metabolic stability in mouse plasma assessed as half life at 1 uM and measured upto 3 hrs by LC-MS/MS analysis; format: ADME, cell-free
[4] = Toxicity in mouse assessed as effect on body weight loss at 20 mg/kg, iv administered once daily for 3 weeks; format: organism-based; conditions: in vivo, 504 h
[5] = tested on: A549; assay: Antiproliferative activity against human A549 cells assessed as inhibition of cell growth measured after 72 hrs by MTT assay; format: functional, cell-based; conditions: A549, 72 h
[6] = tested on: K562; assay: Induction of apoptosis in human K562 cells assessed as increase in bad level at upto 6 nM measured after 48 hrs by Western blot analysis; format: functional, cell-based
[7] = Toxicity in mouse assessed as effect on heart at 20 mg/kg by H and E staining based microscopic analysis; format: organism-based; conditions: in vivo
[8] = tested on: A549; assay: Antiproliferative activity against human A549 cells assessed as inhibition of cell growth at 1 uM measured after 72 hrs by MTT assay relative to control; format: functional
[9] = tested on: HUVEC; assay: Anti-angiogenesis activity in HUVEC cells assessed as reduction in […] at 400 nM measured after 24 hrs by wound healing assay relative to control; format: functional, Homo sapiens; set-up: scale not given: the % may be the effect or the level left
[10] = Toxicity in mouse assessed as effect on liver at 20 mg/kg by H and E staining based microscopic analysis; format: organism-based; conditions: in vivo
[11] = Metabolic stability in mouse liver microsomes assessed as intrinsic clearance at 100 uM measure upto 60 mins in presence of NADPH by LC-MS/MS analysis; format: ADME, Microsome; conditions: 1 h
[12] = tested on: A549/TR; assay: Antiproliferative activity against human A549/Taxol cells assessed as inhibition of cell growth measured after 72 hrs by MTT assay; format: functional, cell-based
[13] = target: T1, Tubulin (Homo sapiens) (UniProt P68371+Q9H4B7+P0DPH7+P68366+Q13509+Q71U36+P04350+Q3ZCM7+P07437+P68363+Q9BQE3+Q6PEY2+Q13885+Q9BVA1+Q9BUF5); assay: (§1) Inhibition of tubulin polymerization (unknown origin) preincubated for 5 mins and measured every 5 mins for 60 mins by absorbance based analysis; format: protein-complex assay; conditions: dose 5-10 µM, time 65.0 min
[14] = target: Tubulin; assay: as §1; format: protein-complex assay, Homo sapiens
[15] = tested on: K562; assay: Induction of apoptosis in human K562 cells assessed as chromatin aggregation at 1.5 to 6 nM incubated for 24 hrs by Hoechst 33342 staining based fluorescence microscopic analysis; format: functional, cell-based; conditions: dose 1.5-6 nM
[16] = tested on: K562; assay: Induction of cell cycle arrest in human K562 cells assessed as accumulation of cells at G2/M phase at 3 nM incubated overnight by PI staining based flow cytometry analysis (reference value: 5.57%); format: functional
[17] = Toxicity in mouse assessed as effect on spleen at 20 mg/kg by H and E staining based microscopic analysis; format: organism-based; conditions: in vivo
[18] = target: T1, Tubulin (Homo sapiens); assay: Inhibition of tubulin polymerization in human K562 cells assessed as microtubule destruction network at 1.5 to 6 uM incubated for 48 hrs by immunofluorescence staining based inverted microscopic analysis; format: cell-based; conditions: dose 1.5-6 µM

Activity [2]: Dose-Dependent Effect
half-life at 1 µM [3]: > 3 h
IC50 [5]: 8 nM
CLH [11]: 129 µL/min/mg
IC50 [12]: 43 nM
inhibition [13]: Dose-Dependent Effect
IC50 [14]: 3060 nM
inhibition [18]: Active
Structure (SMILES): CCn1ccc2cc(N3CCC(=O)c4c3cc(OC)c(OC)c4OC)ccc21
Activity [1]: Active
Activity [4]: Non-Toxic
Activity [6]: Active
Activity [7]: Non-Toxic
inhibition at 1 µM [8]: 79%
Activity [9]: <50%
Activity [10]: Non-Toxic
Activity [15]: Active
Activity [16]: 12.33%
Activity [17]: Non-Toxic
